The record followed here is patent US11786608B2, “Isoquinolinyl triazolone complexes” (Takeda Pharmaceutical Company Limited, priority 2016, dated 2023).

Bounds are passed on as bounds.

The target in this experiment is human BTK (Homo sapiens (Human), UniProt Q06187). The experiment in a line: BTK inhibition assay (phosphorylation of 5-FAM-labeled substrate, Caliper LC-3000). It is filed as biochemical. The settings on record: residues 382 to 659 of human BTK; 60 minutes at room temperature. An excerpt:
The activity of compound of Formula 1, stereoisomer thereof, or tautomers of the compound as Formula 1 or stereoisomer thereof, as BTK inhibitors may be determined by a variety of methods, including in vitro and in vivo methods. The following in vitro assay measures a test compound's ability to inhibit BTK-mediated phosphorylation of a FAM-labeled substrate, 5-FAM-[…]-NH2.
Purified BTK may be obtained as follows (Clone SBVC-1603_9P is used). A cDNA sequence encoding residues 382 to 659 of human BTK is cloned into the vector pSXB4. This construct engineers an in-frame translational fusion with the Glutathione-S-Transferase (GST) protein for use in affinity purification. The fusion protein derived from this construct contains a protease recognition sequence to liberate the BTK from the GST affinity tag. High-titer baculoviral stocks, generated using the Bac-to-Bac® system (Invitrogen), are used to express the recombinant protein in Spodoptera frugiperda Sf9 cells in 10 L Wave bags. Recombinant proteins are isolated from cellular extracts by passage over Glutathione Sepharose 4B (GE Healthcare) and the BTK moiety is released from the GST affinity tag by treatment with PreScission protease. […] The purity of the fractions is assessed by SDS PAGE and the peak protein fractions are pooled and concentrated using Amicon Ultra-15 Centrifugal Filter Devices (Millipore).

Sequence of human BTK (Q06187 382-659): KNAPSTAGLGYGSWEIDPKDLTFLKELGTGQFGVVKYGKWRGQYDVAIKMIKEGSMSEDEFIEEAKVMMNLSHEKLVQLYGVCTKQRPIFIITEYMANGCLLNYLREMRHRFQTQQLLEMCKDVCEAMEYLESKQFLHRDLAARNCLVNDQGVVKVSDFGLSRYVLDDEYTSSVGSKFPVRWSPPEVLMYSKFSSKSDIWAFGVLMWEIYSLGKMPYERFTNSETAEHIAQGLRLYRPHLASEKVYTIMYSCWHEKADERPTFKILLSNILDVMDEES

Regarding `C=CC(=O)N1CC[C@H](Oc2nc(-c3n[nH]c(=O)[nH]3)cc3ccccc23)C1` [Example 1, (S)-3-(1-((1-acryloylpyrrolidin-3-yl)oxy)isoquinolin-3-yl)-1H-1,2,4-triazol-5(4H)-one], the “BTK Inhibition (pIC50)” value is over 8.7.
